Reference: article PMC12720774, “Detergents alter the stability and lipid binding properties of the CD1d immunoreceptor” (Protein Science : A Publication of the Protein Society, 2025)
Counter-ions that a name gives are not always drawn.

Biological target: hCD1d (Homo sapiens, UniProt P15813+P61769)
Assay: Nano differential scanning fluorimetry (nanoDSF) thermal stability
Assay type: binding
Design: TEV protease cleavage site ENLYFQS (C); BirA biotinylation site (C); His7 (C); made in house; host or cells: TurboCHO cells (GenScript)
Conditions: for ΔTm aveage: Figure 5C, nanoDSF, hCD1d with detergent; for ΔT m (NanoDSF): T m difference between hCD1d in the absence and presence of 1000 μM detergent, 1 μM hCD1d; for ΔT m, detergent class summary: approximate; for detergent concentration at which hCD1d appeared to unfold: disappearance of inflection point in ∂(F350/F330)/∂T
Source text: We next sought to probe the ability of each detergent to influence the thermal stability of hCD1d. NanoDSF has been previously applied to measure lipid/detergent‐induced thermal stability changes in target proteins (Cecchetti et al., [2021]; Kotov et al., [2019]), but has not yet been applied to ligand binding to CD1. NanoDSF measures the ITF ratio (F 350 nm/F 330 nm) of proteins as a function of temperature to extract thermodynamic parameters. Given that ligand binding typically shifts the melting temperature of proteins, the effect of a ligand on protein stability can be approximated with the ΔT m value (the difference in T m with and without excess ligand) (Cecchetti et al., [2021]; Kotov et al., [2019]). We found all detergents tested to destabilize hCD1d, albeit to different degrees, with ΔT m values ranging from −0.8 to −14.2°C (Figures 4, S4, and Table 1).
Nano differential scanning fluorometry (nanoDSF) was performed using a Prometheus NT.48 (NanoTemper Technologies). Purified hCD1d at 1 μM in 1X PBS pH 7.4 was loaded into nanoDSF grade standard capillaries (NanoTemper Technologies) and exposed to temperatures ranging from 20 to 95°C with a thermal ramping rate of 1°C/min. Excitation power was set to 50%. The ratio of intrinsic fluorescence emission (F 350 nm/F 330 nm) was monitored. Melting temperatures (T m) were obtained from fitting the first derivative plots in the Prometheus NT.48 Software. The experiments were performed in triplicate, and data are presented as the mean ± standard deviation (n = 3).
For experiments with most detergents, prior to data acquisition, hCD1d and detergent or lipid samples were incubated at 37°C overnight (~12 h) to simulate in vitro and in vivo loading conditions. […] For 18:1 LPC experiments: nanoDSF spectra were acquired in the absence and presence of 18:1 LPC in 1X PBS pH 7.4 at 25°C.

hCD1d, sequence (P61769+P15813 fused): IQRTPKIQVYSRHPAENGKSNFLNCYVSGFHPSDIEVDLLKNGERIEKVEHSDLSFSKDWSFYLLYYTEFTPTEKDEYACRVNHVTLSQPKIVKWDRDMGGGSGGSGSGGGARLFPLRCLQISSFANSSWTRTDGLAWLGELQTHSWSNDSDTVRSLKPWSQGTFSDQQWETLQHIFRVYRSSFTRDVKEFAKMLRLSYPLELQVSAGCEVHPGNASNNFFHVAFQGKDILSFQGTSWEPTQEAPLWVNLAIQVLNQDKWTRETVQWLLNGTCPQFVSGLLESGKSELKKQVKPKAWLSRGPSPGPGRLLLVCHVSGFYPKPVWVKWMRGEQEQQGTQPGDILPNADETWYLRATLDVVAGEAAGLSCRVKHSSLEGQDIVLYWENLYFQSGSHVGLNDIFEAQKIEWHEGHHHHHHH

Compound: Tween 80
- ΔTm aveage: -9.7 °C
- ΔT m (NanoDSF): -9.7 ± 0.4 °C
- ΔT m, detergent class summary: −8 to −10 °C

Compound: CCCCCCCCCCCCCCCC[N+](C)(C)C [CTAB, hexadecyltrimethylammonium bromide]
- ΔTm aveage: -14.17 °C
- ΔT m (NanoDSF): −14.2 ± 0.8 °C
- ΔT m, detergent class summary: −12 to −15 °C
- detergent concentration at which hCD1d appeared to unfold: > 200 µM

Compound: CCCCCCCCCCCC[N+](C)(C)[O-] [LDAO, lauryldimethylamine‐N‐oxide]
- ΔTm aveage: -13.43 °C
- ΔT m (NanoDSF): −13.4 ± 0.1 °C
- ΔT m, detergent class summary: −12 to −15 °C
- detergent concentration at which hCD1d appeared to unfold: > 200 µM

Compound: CCCCCCCCCCCCOS(=O)(=O)O [SDS, sodium dodecyl sulfate]
- ΔTm aveage: -13.07 °C
- ΔT m (NanoDSF): −13.1 ± 0.7 °C
- ΔT m, detergent class summary: −12 to −15 °C
- detergent concentration at which hCD1d appeared to unfold: > 200 µM

Compound: C[C@H](CCC(=O)O)[C@H]1CC[C@H]2[C@@H]3CC[C@@H]4C[C@H](O)CC[C@]4(C)[C@H]3C[C@H](O)[C@]12C [Deoxycholate, sodium deoxycholate]
- ΔTm aveage: -10 °C
- ΔT m (NanoDSF): −10.0 ± 0.3 °C
- ΔT m (NanoDSF) (listed as Sodium deoxycholate): −10.0 ± 0.3 °C
- detergent concentration at which hCD1d appeared to unfold: > 200 µM
